{
  "source": "paper PMC6199279",
  "about": "“Design of Peptoid-peptide Macrocycles to Inhibit the β-catenin TCF Interaction in Prostate Cancer” (Nature Communications, 2018)",
  "target": "T1, β-catenin:TCF4 protein interaction (Homo sapiens, UniProt P35222)",
  "T1 construct": "host or cells: HEK293",
  "T1 sequence (P35222 2-781 limits assumed)": "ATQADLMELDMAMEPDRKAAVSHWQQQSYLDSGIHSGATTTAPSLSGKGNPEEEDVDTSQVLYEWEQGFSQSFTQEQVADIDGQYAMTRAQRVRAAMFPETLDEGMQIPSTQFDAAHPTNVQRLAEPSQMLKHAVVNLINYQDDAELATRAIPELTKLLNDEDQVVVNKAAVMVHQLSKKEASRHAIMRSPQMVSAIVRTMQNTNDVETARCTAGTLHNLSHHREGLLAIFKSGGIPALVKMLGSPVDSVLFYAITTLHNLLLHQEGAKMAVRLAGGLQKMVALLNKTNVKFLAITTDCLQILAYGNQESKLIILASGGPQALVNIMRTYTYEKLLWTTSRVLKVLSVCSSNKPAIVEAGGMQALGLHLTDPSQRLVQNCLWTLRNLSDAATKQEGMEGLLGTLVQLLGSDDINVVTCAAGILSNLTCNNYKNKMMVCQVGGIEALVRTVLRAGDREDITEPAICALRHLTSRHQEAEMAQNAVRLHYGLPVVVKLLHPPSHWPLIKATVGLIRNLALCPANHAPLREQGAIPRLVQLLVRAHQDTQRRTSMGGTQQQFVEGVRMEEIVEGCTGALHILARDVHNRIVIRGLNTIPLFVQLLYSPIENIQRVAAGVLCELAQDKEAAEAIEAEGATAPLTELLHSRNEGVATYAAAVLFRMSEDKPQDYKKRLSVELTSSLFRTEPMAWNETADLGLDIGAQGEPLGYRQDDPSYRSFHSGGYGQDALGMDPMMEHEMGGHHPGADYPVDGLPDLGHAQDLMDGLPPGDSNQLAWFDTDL",
  "test": "Co-immunoprecipitation of myc-TCF4 and endogenous β-catenin in HEK293 cells",
  "format": "cell-based",
  "conditions": "HEK293 cells with myc-TCF4, 10 µM, 48 h, vs vehicle",
  "description": "We next characterized the dose response curves for compound 13 in the Wnt and AR luciferase reporters. The linear version of 13 (linear 13: NH2-|N-mpp, N-dmp, N-ipp, N-Smpe, N-Smpe, D-Ala|-OH) was used as a control compound. […] To test direct binding, we pre-formed dynamic light scattering (DLS) with β-catenin in the presence of vehicle, compound 13, and α-cyclodextrin. […] HEK293 cells were transiently transfected with a plasmid expressing full length, myc-tagged TCF4. After 48 h treatment with either vehicle (DMSO) or 10 µM 13, cells were lysed and myc-TCF4 protein was immunoprecipitated.\nLNCaP-abl and LNCaP-95 cells were cultured in indicator free RPMI 1640 media (Life) supplemented with 10% charcoal stripped FBS, 1% pennicillin/streptomycin, and 1% L-Glutamine. HEK-293 Cells were cultured in DMEM media (Life) supplemented with 10%FBS and 1% pennicillin/streptomycin. A549 and U2OS cells were cultured in RPMI 1640 media (Life) and McCoy’s 5 A modified media (Life), respectively, both supplemented with 10%FBS and 1% pennicillin/streptomycin. […] Both were measured using the ONE-Glo detection kit (Promega) and data is standardized to CellTiter-Fluor (Promega) viability readings to account for potential variations in well to well cell number. […] Total protein concentration in cell lysates were determined using Pierce Rapid Gold BCA Protein Assay Kit (Thermo). […]",
  "note": "Numbered stars: 1 amine (or outer) side, 2 acyl side, 3 side chain; on linkers, the order of the positions; unused ones are H or OH. Square brackets hold non-standard residues; d marks the D form. Peptide text beside a SMILES is read from it. N(2-(2-PhOPh)Et)Gly = O=C(O)CNCCc1ccccc1Oc1ccccc1; Gly(N-3,5-(OMe)2-Ph) = COc1cc(NCC(=O)O)cc(OC)c1; X1 = COc1ccc([C@H](C)N(CC(=O)[*:2])[*:1])cc1; N((CH2)3OiPr)Gly = CC(C)OCCCNCC(=O)O",
  "data": [
    {"smiles": "COc1ccc([C@H](C)N2CC(=O)N[C@H](C)C(=O)N(CCc3ccccc3Oc3ccccc3)CC(=O)N(c3cc(OC)cc(OC)c3)CC(=O)N(CCCOC(C)C)CC(=O)N([C@@H](C)c3ccc(OC)cc3)CC2=O)cc1", "note": "[Compound 13] (cyclo([dA][N(2-(2-PhOPh)Et)Gly][Gly(N-3,5-(OMe)2-Ph)][N((CH2)3OiPr)Gly][X1][X1]))", "values": [
      {"measurement": "β-catenin:TCF association (co-immunoprecipitated β-catenin)", "result": "decreased"}
    ]}
  ]
}
